Data on seven molecules can be found in US20260069541A1, “COMPOSITIONS AND METHODS FOR THE DELIVERY OF ACTIVE AGENTS INCLUDING NUCLEIC ACIDS” (Ohio State Innovation Foundation, priority 2022, published 2026).

Data set [1] relates to A549 cells. The data set is described as follows: Colony formation assay. The following applies: up to 1 week. In kind it is cell-based. On the procedure: Colony Formation Assay. A549 cells were seeded at 100 cells/well in 24-well plates 24 hours prior to treatments. Cells were treated with 16-mer and 20-mer AM21 in free solution and QTPlus at concentrations of 1 uM and 10 uM. Cells were allowed to form colony for up to 1-week followed with fixation by methanol and colony detection by crystal violet.

Another data set relates to miR-21. The experiment in a line: In vitro gene regulation, RT-qPCR of miR-21 downstream genes. The format is cell-based. The note with it: KB and A549 cells; free solution, QTsome Original or QTPlus. On the procedure: In Vitro Gene Regulation. KB, A549, THP-1, MC38, and RAW264.7 cells were seeded at 3×10^5 cells/well in 6-well plates 24 hours prior to treatments. Cells were treated with scramble oligonucleotide or AM21 in free solution, lipofectamine, QTsome Original, and QTPlus. Total RNA was extracted using TRI reagent (Zymo Research) per manufacturer protocol. cDNA was prepared by high-capacity cDNA reverse transcription kit (Invitrogen, Waltham, MA, USA), and real-time qPCR (RT-qPCR) was done using SsoAdvanced™ Universal SYBR® Green Supermix (Bio-Rad Laboratories, Hercules, CA) on a QuantStudio 7 Flex Real-time PCR System. All the RT-qPCR primers were purchased from Sigma-Aldrich. Beta-actin (Actb) was selected as the housekeeping gene control. The relative amount of RNA level was calculated and compared according to the 2-ΔΔCt method.
On the technique in general: Quantitative PCR measures a nucleic acid by following its amplification.

In data set [2] the test system is FLuc mRNA expression in HEK293, A549, and KB. The experiment in a line: In vitro bioluminescent assay, FLuc mRNA delivery (Example 1). The format is cell-based. The following applies: comparison of ionizable lipids (FIG. 1D) and helper lipids (FIG. 1E). The protocol:
In Vitro Bioluminescent Assay. HEK293, A549, and KB were seeded at 3000 cells/well in 96-well plates 24 hours prior to treatments. Cells were treated with 0.1 ug of FLuc mRNA in QTsome Original or QTPlus. Cells were allowed to uptake QTsome Original or QTPlus encapsulating mRNA overnight. The mRNA expression was determined by Bright-Glo™ Luciferase Assay System (Promega, Madison, WI).

The subject of a further data set is HEK293T cells. The data set is described as follows: Bright-Glo luciferase assay, FFLuc mRNA delivery by QTsome+ (Example 2). The format is cell-based. The following applies: 10,000 HEK293T cells, 100 ng FFLuc mRNA, overnight. On the procedure:
To examine the delivery efficiency of QTsome+ lipid nanoparticles, FFLuc mRNA was selected as the reporter gene of interest to be encapsulated into different QTsome+ formulations. Bioluminescence intensity was measured by Bright-Glo luciferase kit used as the quantification of expressed firefly luciferase after mRNA transfection. We treated 10,000 HEK293T cells overnight with 100 ng FFLuc mRNA utilizing different formulations with lipofectamine 3000 as the positive control. […] Therefore, the follow-on samples were formulated at room temperature instead of 65° C. or 37° C.

The next data set has as its system FFLuc mRNA expression. The experiment in a line: In vivo mRNA expression after IM injection (IVIS bioluminescence). The following applies: 1.5 μg per leg, two rounds combined, helper lipid in QTsome+. On the set-up: species or system ICR CD-1 Swiss mice. The source says:
ICR CD-1 Swiss mice were purchased from Charles River Laboratory Animals were housed in a temperature-controlled room under a 12 hr light/12 hr dark cycle and fed normal chow diet. All animal studies were reviewed and approved by the Ohio State University Institutional Laboratory Animal Care and Use Committee. Both male and female mice were used for experiments. In vivo mRNA expression was quantified by measuring firefly luciferase bioluminescence. Mice treated with IM injection of FFLuc mRNA lipid QTsome+ nanoparticles at 1.5 μg per leg were injected with luciferin intraperitonially 5 minutes prior to bioluminescence measurements. Bioluminescence images were taken by a in vivo imaging system (IVIS) under optimal exposure settings.

Data set [3] in a line: TNS fluorescence assay, apparent pKa. In kind it is physicochemical. The following applies: helper lipid in QTsome+, same % of DOTAP. On the procedure:
To evaluate the apparent pKa of the lipid QTsome+ nanoparticles including different combinations of lipids, 2-(p-toluidino) naphthalene-6-sulfonic acid (TNS) fluorescence assay was designed. TNS binds to positively charged lipids through electrostatic interactions and emits strong fluorescence upon excitation. A series of universal buffers (a combination of 10 mM NaCitrate, 10 mM NaPhasphate, 10 mM NaBorate, and 150 mM NaCl) with pH ranging from 3 to 12 was prepared. QTsome+ were diluted in these buffers at the final ionizable lipid (including SM-102, A066, DODMA and DOTAP) concentration of 75 μM. TNS was then added to the final concentration at 6.0 μM. pH was measured after thorough mixing of TNS and QTsome+ using a pH meter. TNS Fluorescence was obtained by transferring 200 μL of samples into a black-opaque plate in triplicate, and reading using a SpectraMax M5 plate reader with the excitation (λex) at 325 nm and the emission (Nem) at 435 nm. It was assumed that in the presence of amino lipids, TNS fluorescence reaches a maximum when 100% of the amino lipids are ionized, while TNS has little fluorescence when the amino lipids are in the un-ionized state. […]
Where FL is TNS fluorescence value, pKa is apparent pKa of the amino lipids, b is the measure of the cooperativeness of the protonation process of […].

Data set [4] has as its system A549 cells. The data set is described as follows: MTS assay, cell viability and synergy with erlotinib (CompuSyn). In kind it is cell-based. The note with it: fixed-ratio combination of QTPlus-AM21 and erlotinib. The protocol:
MTS Assay. A549 cells were seeded at 3000 cells/well in 96-well plates 25 hours before treatments. […] After 72-hour treatment, cell viability was examined by CellTiter 96® AQueous One Solution (Promega, Madison, WI) per manufacturer protocol.

In data set [5] the test system is A549 xenograft mouse model. The data set is described as follows: In vivo antitumor efficacy of QTPlus-AM21 and erlotinib, A549 xenograft. The following applies: A549 xenograft mice, individually or in combination. On the set-up: species or system nude mice. On the procedure:
Treatments were initiated once tumors reached 50-100 mm^3. […] All mice were dosed every 3 days for 5 doses. Tumor growth and body weight were monitored, and the tumor volumes were calculated according to the formula: All animal studies were reviewed and approved by The Ohio State University Institutional Laboratory Animal Care and Use Committee (IACUC). All mice were euthanized one day after the last dose to peak the immune activation and protein expression in TME.

Data set [6] deals with MC38 murine colorectal syngeneic model. The experiment in a line: In vivo antitumor efficacy, MC38 syngeneic model. Also on record: species or system C57BL/6 mice. The following applies: MC38 syngeneic mice, individually or in combination. The protocol:
To evaluate the combination therapy of QTPlus-AM21 and anti-PDL I therapy, MC38 murine colorectal syngeneic model was generated by subcutaneously inoculating C57BL/6 mice (obtained from Charles River Laboratories) with 1×10^6 cells per mouse on the right flack. Treatments were initiated once tumors reached 50-100 mm^3. Mice (n=5) were intraperitoneally treated with saline, 3 mg/kg QTPlus-encapsulating scramble oligonucleotide, 3 mg/kg QTPlus-AM21, 10 mg/kg atezolizumab, and QTPlus-AM21/atezolizumab combination (3 mg/kg QTPlus-AM21 and 10 mg/kg atezolizumab).
All mice were dosed every 3 days for 5 doses. Tumor growth and body weight were monitored, and the tumor volumes were calculated according to the formula: […]
All animal studies were reviewed and approved by The Ohio State University Institutional Laboratory Animal Care and Use Committee (IACUC). All mice were euthanized one day after the last dose to peak the immune activation and protein expression in TME. Terminal Tumor growth inhibition (% TGI) was determined by the formula: […]
Flow Cytometry. […] Stained cells were analyzed using an LSR II flow cytometer in Flow Cytometry Shared Resources (FCSR) at The Ohio State University Comprehensive Cancer Center.

On to “5′-A*+T*+C*A*G*+T*+C*+T*G*A*+T*A*A*G*+C*+T-3′ (ATCAGTCTGATAAGCT; chemistry not given here) [AM21]”, for which the “Inhibition of colony formation / A549 cell growth” value in the data set on A549 cells [1] was “superior in inhibiting A549 cell growth in vitro”. For the same molecule, the “miR-21 downstream gene regulation” value in the data set on miR-21 was “Akt1 downregulation, Ddah1 upregulation, and Pdl1 upregulation”.

For the molecule `CCCCC/C=C\C/C=C\CCCCCCCCOCC(CN1CCCC1)OCCCCCCCC/C=C\C/C=C\CCCCC` (centres unmarked) [A-066, 1-(2,3-bis(((9Z,12Z)-octadeca-9,12-dien-1-yl)oxy)propyl)pyrrolidine], the “mRNA delivery efficiency of QTPlus with different components” value in data set [2] is given as “the most suitable for mRNA delivery in QTsome platform”.

Turning to `CCCCCCCC/C=C\CCCCCCCC(=O)OC[C@H](COP(=O)(O)OCCN)OC(=O)CCCCCCC/C=C\CCCCCCCC` [DOPE, 1,2-dioleoyl-sn-glycero-3-phosphoethanolamine], in the data set with HEK293T cells, the “Bioluminescence intensity (mRNA delivery efficiency)” value was “outperformed DOPC and DSPC”. Also, in data set [2], the “mRNA delivery efficiency of QTPlus with different components” value is “the most suitable as helper lipids”. Besides, the “In vivo delivery efficiency (FLuc expression)” value in the data set with FFLuc mRNA expression is on record as “rather outperformed PC-based helper lipids”.

Turning to `CCCCCCCCCCCCCCCCCC(=O)OC[C@H](COP(=O)([O-])OCC[N+](C)(C)C)OC(=O)CCCCCCCCCCCCCCCCC` [DSPC, distearoylphosphatidylcholine], in data set [3], the “Apparent pKa” value is listed as “lowest pKa among all”.

For `CCCCC/C=C\C/C=C\CCCCCCCCC(CCCCCCCC/C=C\C/C=C\CCCCC)OC(=O)CCCN(C)C` [MC3, dilinoleylmethyl-4-dimethylaminobutyrate, reference compound], in the data set with HEK293T cells, the “Bioluminescence intensity (mRNA delivery efficiency)” value is “slightly increased the delivery efficiency”.

As for `C#Cc1cccc(Nc2ncnc3cc(OCCOC)c(OCCOC)cc23)c1` [erlotinib, Erlotinib], the “Dose reduction index (DRI)” value with A549 cells [4] worked out at 2.26. In addition, the Body weight result in [5] is “No significant differences in body weight”.

In the case of “atezolizumab: an anti-PDL1 therapy, monoclonal antibody”, the Body weight entry in data set [6] was “No significant differences in body weight”.
